One experiment addresses T1, Maxi-K α1/β4 (Homo sapiens, UniProt Q12791).
T1 construct: expressed in transfected cells; host or cells: HEK293
The experiment can be described thus: Tl+-flux assay in HEK-293 cells, Maxi-K α1/β4. It is filed as cell-based. The following applies: HEK293; 10 µM test compound; relative to control paxilline; read-out: Percent Inhibition ± SEM, Maxi-K α1/β4. An excerpt:
(§1) Having executed our plan to prepare analogs across the identified regions of the chemotype (Figure 2), we identified two analogs for further profiling and evaluation. […] Desiring to add a second compound with some measure of structural differences, we also chose another submicromolar SLACK inhibitor 66 (VU0936154). Whereas 40 contains an ether linker and a halogenated phenyl group in the eastern region, […] contains an N-methyl linker and a phenyl group with a more polar cyano substituent. We first screened these analogs at 10 µM versus our in-house panel of ion channel targets using Tl^+-flux assays in HEK-293 cells expressing the human target of interest. […] Included in this set are Slo family members SLICK and two isoforms of Maxi-K, as well as several different K^+, Na^+, and Ca^2+ channels (Table 6). […] Of note was the excellent selectivity versus the broader panel of targets for both compounds, including versus the hERG channel.
(§2) Stably transfected monoclonal HEK293 cell lines expressing SLICK, Maxi-K α1/β3, Maxi-K α1/β4, CaV3.2, GIRK 1/2, KV2.1, KV7.2, NaV1.7, and TASK-1 were generated as previously described. […]
(§3) The Tl^+ flux assays were conducted as previously described, with modifications optimized for individual cell lines as described below. […] Cell plates were then loaded onto a Panoptic kinetic imaging plate reader (WaveFront Biosciences, Franklin, TN, USA). […]

The next experiment addresses T2, KV7.2 (Homo sapiens, UniProt O43526).
T2 construct: expressed in transfected cells; host or cells: HEK293
The experiment can be described thus: Tl+-flux assay in HEK-293 cells, KV7.2. It is filed as cell-based. As to conditions: HEK293; 10 µM test compound; relative to control XE991; read-out: Percent Inhibition ± SEM, KV7.2.
Text: as §1, §2, §3

These results are taken from PMC11643494, “Structure–Activity Relationship Studies in a Series of 2-Aryloxy-N-(pyrimidin-5-yl)acetamide Inhibitors of SLACK Potassium Channels” (Molecules, 2024).

T1 sequence (Q12791 whole entry): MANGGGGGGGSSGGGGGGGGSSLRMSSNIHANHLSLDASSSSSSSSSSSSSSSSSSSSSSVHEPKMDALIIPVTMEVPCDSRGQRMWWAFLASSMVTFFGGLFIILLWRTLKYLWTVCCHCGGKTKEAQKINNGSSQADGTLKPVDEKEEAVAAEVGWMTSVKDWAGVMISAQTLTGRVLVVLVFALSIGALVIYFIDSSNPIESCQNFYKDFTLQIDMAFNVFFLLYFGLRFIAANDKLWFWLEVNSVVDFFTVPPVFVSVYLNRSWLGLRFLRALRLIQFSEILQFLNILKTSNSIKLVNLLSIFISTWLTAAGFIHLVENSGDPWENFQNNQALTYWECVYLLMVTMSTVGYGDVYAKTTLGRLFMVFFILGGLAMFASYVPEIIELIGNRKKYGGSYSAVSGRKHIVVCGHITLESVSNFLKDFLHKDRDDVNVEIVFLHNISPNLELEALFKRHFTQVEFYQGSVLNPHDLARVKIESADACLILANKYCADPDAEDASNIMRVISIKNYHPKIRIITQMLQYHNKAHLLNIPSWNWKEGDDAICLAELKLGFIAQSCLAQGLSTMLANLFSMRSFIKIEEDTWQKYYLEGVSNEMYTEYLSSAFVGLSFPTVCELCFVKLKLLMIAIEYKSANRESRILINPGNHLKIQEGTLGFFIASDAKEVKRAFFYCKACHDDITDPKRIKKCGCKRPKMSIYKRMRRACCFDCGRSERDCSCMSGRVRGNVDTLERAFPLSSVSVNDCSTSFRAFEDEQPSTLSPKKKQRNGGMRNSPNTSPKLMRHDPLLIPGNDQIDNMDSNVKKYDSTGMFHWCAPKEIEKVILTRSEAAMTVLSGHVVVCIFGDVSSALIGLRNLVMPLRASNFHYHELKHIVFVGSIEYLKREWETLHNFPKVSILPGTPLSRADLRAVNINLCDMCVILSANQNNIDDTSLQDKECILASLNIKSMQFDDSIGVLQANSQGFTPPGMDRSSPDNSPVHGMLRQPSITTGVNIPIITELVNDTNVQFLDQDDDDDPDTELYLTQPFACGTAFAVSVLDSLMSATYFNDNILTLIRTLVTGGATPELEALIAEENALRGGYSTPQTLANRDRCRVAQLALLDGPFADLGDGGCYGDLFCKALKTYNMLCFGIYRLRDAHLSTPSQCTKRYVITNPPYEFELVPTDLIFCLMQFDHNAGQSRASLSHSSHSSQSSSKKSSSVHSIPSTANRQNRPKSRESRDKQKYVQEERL
T1 sequence (Q86W47 whole entry partner): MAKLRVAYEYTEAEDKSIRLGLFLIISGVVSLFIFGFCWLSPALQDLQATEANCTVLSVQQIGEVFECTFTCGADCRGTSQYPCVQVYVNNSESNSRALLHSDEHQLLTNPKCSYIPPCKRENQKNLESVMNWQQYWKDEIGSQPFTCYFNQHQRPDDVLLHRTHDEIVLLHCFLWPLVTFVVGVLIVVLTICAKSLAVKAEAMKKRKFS

In the case of `CC(C)(Oc1ccc(Cl)cc1)C(=O)Nc1cnc(Oc2c(F)cccc2F)nc1` [Analog 40], the inhibition at 10 µM on Maxi-K α1/β4 worked out at 10 ± 7.4%; on KV7.2, 1.3 ± 1%.
For `CN(c1ccc(C#N)cc1)c1ncc(NC(=O)C(C)(C)Oc2ccc(Cl)cc2)cn1` [Analog 66], the inhibition at 10 µM on Maxi-K α1/β4 came to 22 ± 2.5%; at KV7.2, 1.6 ± 0.94%.
